Counter-ions that a name gives are not always drawn.
tested on: MTT (mouse pheochromocytoma); assay: IC50 of cell viability (ATP content); settings: (24 or 48 h)
Method in brief: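 CellTiter-Glo ATP luminescence, read after 15 minutes, was used to assess MTT mouse pheochromocytoma cells treated for 24 or 48 hrs with library compounds (final 0.5 nM to 46 µM, 8 concentrations). The cells had been plated at 5 µl of 200,000 cells/ml per well in white 1536-well plates in DMEM with 5% FBS and 1% horse serum and cultured overnight at 37°C, 5% CO2. Normalisation set positive-control wells to 100% and DMSO wells to 0%. The IC50 was then determined by four-parameter logistic fitting.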

Structure (SMILES)	IC50 of cell viability [µM]
CC(=O)c1ccc([S+](=O)([O-])NC(=O)NC2CCCCC2)cc1 [Acetohexamide]	> 46
FC(F)(F)C(F)(F)C(F)(F)C(F)(F)C(F)(F)C(F)(F)C(F)(F)C(F)(F)Br [Perflubron]	> 46
C[N+](C)(C)CCOC(=O)C(O)(c1ccccc1)c1ccccc1 [METOCINII IODIDUM]	> 46
CCCCCCCCCc1ccc(O)cc1 [4-Nonylphenol, branched]	> 46
O=C1N\C=N/C2=C1[NH]C=N2 [HYPOXANTHINE]	> 46
CC[C@@]1(c2ccccc2)NC(=O)N(C)C1=O [MEPHENYTOIN]	> 46
CC(C)(C)NC[C@@H](O)COc1ccccc1C1CCCC1 [Penbutolol sulfate]	> 46
Cc1[nH]c(=O)c(C#N)cc1-c1ccncc1 [Milrinone]	> 46
CCOc1ccc(NC(=S)Nc2ccc(OCC)cc2)cc1 [Etocarlida]	> 46
CCCCCCCCCCCCCCCC(=O)OC[C@@H](COP(=O)([O-])OCC[N+](C)(C)C)OC(=O)CCCCCCCCCCCCCCC [2,3-Dipalmitoyl-sn-glycero-1-phosphocholine]	> 46
CN(C)c1ccc(O)c2c1CC1CC3C(N(C)C)C(=O)C(C(N)=O)C(=O)C3(O)C(=O)C1C2=O (stereo not drawn) [Minocycline]	> 46
CCCCNc1ccc(C(=O)OCCOCCOCCOCCOCCOCCOCCOCCOCCOC)cc1 [Benzonatate]	> 46
CC1(S(=O)(=O)[O-])CC(=O)c2ccccc2C1=O (stereo not drawn) [Menadione sodium bisulfite]	> 46
Clc1cccc(SC2CCNCC2)n1 [ANPIRTOLINE]	> 46
CC(C)=CC1C(C(=O)OCc2coc(Cc3ccccc3)c2)C1(C)C (stereo not drawn) [BIORESMETHRINUM]	> 46
Oc1ccc([C@H]2CNCc3c2ccc(O)c3O)cc1O [SELANDOPAM HYDROCHLORIDE HYDRATE (ZELANDOPAM)]	> 46
Nc1c[n+](N2CCOCC2)no1 [SIN-1 chloride]	> 46
CCCN1C[C@H](CSC)C[C@@H]2c3cccc4[nH]cc(c34)C[C@H]21 [PERGOLIDE METHANESULFONATE]	> 46
NC12CC3CC(CC(C3)C1)C2 [AMANTIDINE]	> 46
Nc1ccc(N)cc1 [P-PHENYLENEDIAMINE]	> 46
CNC(C)Cc1ccccc1 (stereo not drawn) [(?)-Methamphetamine]	> 46
CC(=O)Oc1ccc(C2(c3ccc(OC(C)=O)cc3)C(=O)Nc3ccccc32)cc1 [Oxyphenisatin Acetate]	> 46
C[C@]12CC[C@@H]3c4ccc(OC(=O)N(CCCl)CCCl)cc4CC[C@@H]3[C@H]1CC[C@@H]2OP(=O)(O)O [ESTRAMUSTINE PHOSPHATE]	> 46
C=C1CC[C@@]2(O)[C@H]3Cc4ccc(O)c5c4[C@@]2(CCN3CC2CC2)[C@H]1O5 [NALMEFENE HYDROCHLORIDE]	> 46

Structure (SMILES)	IC50 of cell viability [µM]
C#C[C@]1(OC(=O)CCCCCC)CC[C@H]2C3CCC4=CC(=O)CC[C@@H]4[C@H]3CC[C@@]21C (stereo partly drawn) [Noristerat]	> 46
O=C1CC[C@@]2(O)C3Cc4ccc(O)c5c4C2(CCN3CC2CC2)[C@H]1O5 (stereo partly drawn) [NALTREXONE]	> 46
COP(=S)(OC)Oc1ccc(Sc2ccc(OP(=S)(OC)OC)cc2)cc1 [TEMEFOSUM]	> 46
CCN(CC)C(=O)[C@H]\1CN(C)[C@@H]\2CC3=C[NH]C4=C3C(=CC=C4)C2=C1 [Lysergic acid diethylamide]	> 46
CN1CCN(C2=Nc3ccccc3Cc3ccccc32)CC1 [Perlapine]	> 46
CC(=O)O[C@@]1(CC[C@H]2[C@@H]3CCC/4=C/C(=O)CC[C@@H]4[C@H]3CC[C@]12C)C#C [NORETHISTERONE ACETATE]	> 46
NCCNCCNCCN [Triethylenetetramine]	> 46
FC(F)(F)C(F)(F)C(F)(F)C(F)(F)C(F)(F)C(F)(F)F [PERFLEXANE]	> 46
CN1CCN(c2cc3c(cc2F)c(=O)c(C(=O)O)cn3-c2ccc(F)cc2)CC1 [DIFLOXACIN HYDROCHLORIDE]	> 46
Cc1nccn1C[C@@H]1CCc2c(c3ccccc3n2C)C1=O [Ondansetron Hydrochloride]	> 46
CCCCC(=O)OC1CCC2C3CCc4cc(O)ccc4C3CC[C@]12C (stereo partly drawn) [ESTRADIOL VALERATE]	> 46
CC(C)[N+](C)(CCOC(=O)C1c2ccccc2Oc2ccccc21)C(C)C.[Br-] [PROPANTHELINE BROMIDE]	> 46
CC(=O)[C@@]1(O)CC[C@@H]2[C@@H]3CCC/4=C/C(=O)CC[C@]4(C)[C@]3(F)[C@@H](O)C[C@]12C [Flugestone]	> 46
CC(C)=CC1C(C(=O)OC\2CC(=O)\C(=C2C)CC=C)C1(C)C (stereo not drawn) [Allethrin]	> 46
C[C@]12CC[C@@H]3[C@H](CC\C4=C\CCC[C@H]34)[C@@H]1CC[C@]2(O)C#C [Lynestrenol]	> 46
OC1(c2ccc(Cl)c(C(F)(F)F)c2)CCN(CCCC(c2ccc(F)cc2)c2ccc(F)cc2)CC1 [Penfluridol]	> 46
CC(=O)OCC(=O)[C@@H]1CC[C@@H]2[C@H]3CC[C@H]4C[C@@H](O)CC[C@]4(C)[C@@H]3C(=O)C[C@]21C [Alfadolone acetate]	> 46
Clc1ccc([C@@H](OCCN2CCCCC2)c2ccccc2)cc1 [Cloperastine hydrochloride]	> 46
ClC/1=C(Cl)/[C@@]2(Cl)[C@H]3[C@H]4C[C@H]([C@@H]5O[C@H]45)[C@H]3[C@]1(Cl)C2(Cl)Cl [Dieldrin]	> 46
CC(C)(C)CC(C)(C)c1ccc(OCCO)cc1 [Triton X-100]	> 46
CC1OC(OC2CCC3(C)C(CCC4C3CC(O)C3(C)C(C5=CC(=O)OC5)CCC43O)C2)CC(O)C1OC1CC(O)C(OC2CC(O)C(OC3OC(CO)C(O)C(O)C3O)C(C)O2)C(C)O1 (stereo not drawn) [DESLANOSIDE]	> 46
CC[C@@H]1/C=C(\C)C[C@H](C)C[C@H](OC)[C@H]2O[C@@](O)(C(=O)C(=O)N3CCCC[C@H]3C(=O)O[C@H](/C(C)=C/[C@@H]3CC[C@H](Cl)[C@H](OC)C3)[C@H](C)[C@@H](O)CC1=O)[C@H](C)C[C@@H]2OC [PIMECROLIMUS]	> 46
CN1Cc2c(N)cccc2C(c2ccccc2)C1.O=C(O)/C=C\C(=O)O (stereo not drawn) [NOMIFENSINE MALEATE]	> 46

Results, then the molecule that gave them:

IC50 of cell viability [µM]	Structure (SMILES)
> 46	C[C@H](CCC(=O)O)[C@@H]1CC[C@H]2[C@@H]3[C@@H](CC[C@@]21C)[C@@]1(C)CC[C@H](O)C[C@@H]1C[C@@H]3O [Chenodiol]
> 46	CCc1ccc(S(=O)(=O)O)cc1
> 46	O=C(CO)C(O)C(O)C(O)CO [D-LEVULOSE]
> 46	NC(COP(=O)(O)O)C(=O)O (stereo in doubt) [O-PHOSPHO-L-SERINE]
> 46	CCCCNc1cc(C(=O)O)cc([S+](N)(=O)[O-])c1Oc1ccccc1 [Bumetanide]
> 46	NCCCC(=O)O [GABA]
> 46	C[C@H]1C[C@H]2[C@@H]3CCC4=CC(=O)C=C[C@]4(C)[C@@]3(Cl)[C@@H](O)C[C@]2(C)[C@@]1(O)C(=O)CO [Beclomethasone]
> 46	O=C(Cn1ccnc1[N+](=O)[O-])NCCO [ETANIDAZOLE]
> 46	OCC(O)CS (stereo not drawn) [THIOGLYCEROL]
> 46	CC(C)NC[C@H]1CCc2cc(CO)c([N+](=O)[O-])cc2N1 [Oxamniquine]
> 46	O=P(O)(O)CP(=O)(O)O [MEDRONIC ACID]
> 46	C[C@H](O)[C@H]1[C@@H]2[C@@H](C)\C(=C(/N2C1=O)C(O)=O)S[C@@H]3CN[C@H](C3)C(=O)N(C)C [Meropenem]
> 46	O=C(NCCN1CCOCC1)c1ccc(Cl)cc1 [Moclobemide]
> 46	C=CC1=C(C(=O)O)N2C(=O)C(NC(=O)/C(=N\O)c3csc(N)n3)C2SC1 (stereo not drawn) [CEFDINIR]
> 46	CCCCCCCCCCCCCCCCCCCCCC(=O)Nc1ccn([C@@H]2O[C@H](CO)[C@@H](O)[C@@H]2O)c(=O)n1 [ENOCITABINE]
> 46	CC(=O)CCC(=O)[O-] [Calcium Levulinate]
> 46	CC(=O)N[C@@H]1C(O)OC(CO)C(O)C1O (stereo partly drawn) [ACETYLGLUCOSAMINE]
> 46	CC1(C)O[C@@H]2C[C@H]3[C@@H]4C[C@H](F)C/5=C/C(=O)/C=C\[C@]5(C)[C@@]4(F)[C@@H](O)C[C@]3(C)[C@@]2(O1)C(=O)CO [Fluocinolone acetonide]
> 46	N[C@H](CCC(=O)O)C(=O)O [D-GLUTAMIC ACID]
> 46	COC(=O)C1=C(C#N)NC(C)=C(C(=O)OC(C)C)C1c1cccc([N+](=O)[O-])c1 (stereo not drawn) [NILVADIPINE]
> 46	CCCCC(=O)O [Valeric acid]
> 46	CC1CCC(C(C)C)C(OC(=O)c2ccccc2O)C1 (stereo not drawn) [MENTHYL SALICYLATE]
> 46	[O-]C(=O)C/1=C(/CS[C@@H]2[C@H](NC(=O)C[N]3C=NN=N3)C(=O)N12)CSC4=NN=CS4 [CEFTEZOLE SODIUM]
> 46	CC1(C)S[C@@H]2[C@H](NC(=O)C(C(=O)Oc3ccc4c(c3)CCC4)c3ccccc3)C(=O)N2[C@H]1C(=O)O (stereo partly drawn) [Carbenicillin indanyl]
> 46	CCOC(=O)c1ccc(O)cc1 [Ethylparaben]
> 46	COC(=O)CCC[N+](C)(C)C [CARPRONIUM CHLORIDE]

Reference: the supplement of paper PMC3974653
